Assay results as given in US5476856A, “Treatment of PAF and histamine-mediated diseases with 8-chloro-11-[1-[(5-methyl-3-pyridyl)methyl]-4-piperidyliden]-6,11-dihydr o-5H-benzo[5,6]cyclohepta[1,2-b]pyridine” (J. Uriach & Cia. S.A., priority 1992, dated 1995).
Where a name gives a salt, the structure may show the parent alone.

How the values were obtained:
[1] = test system: platelet aggregation induced by PAF; experiment: Inhibition of platelet aggregation induced by PAF (Test 1); type: cell-based, New Zealand albino rabbits; conditions: Oryctolagus cuniculus; rabbit platelet rich plasma; PAF (C18) 16 nM final; read-out: PAF antagonism in vitro, Test 1 Plat. aggreg. IC50
Procedure: The platelet rich plasma (PRP) is prepared by blood centrifugation at 250×g for 10 min. at 4° C. and it is diluted with platelet poor plasma (PPP) obtained by additional centrifugation at 3000×g for 10 min. The amount of platelets is adjusted to […].

[2] = test system: hypotension induced by PAF; experiment: Inhibition of the hypotensive effect induced by PAF in normotense rats (Test 2); design: species or system Sprage Dawley rats; conditions: Rattus norvegicus; iv, 3 min before PAF 0.5 mcg/Kg i.v.; 50% inhibition of hypotension; read-out: PAF antagonism in vivo, Test 2 Art. p. ID50
Procedure: Male Sprage Dawley rats (b.w. 180-220 g) anesthetized with sodium pentobarbital (50 mg/Kg, i.p. 1 mL/100 g) are used. In order to measure the average arterial pressure, a polyethylene catheter is introduced into the carotid artery. The arterial pressure is recorded with the help of a transducer connected with a R611 Beckman polygraph. The test compounds are administered through the femoral vein 3 min. before the injection of PAF (0.5 mcg/Kg, i.v.).

mortality induced by PAF = experiment: Mortality induced by PAF in mice (p.o.) (Test 3); type: in vivo, Swiss mice; conditions: for ED50: Mus musculus, 2 h, po, 1 h before 100 mcg/kg PAF-C18 and 1 mg/kg propanolol, 50% inhibition of mortality, read-out: PAF antagonism in vivo, Test 3 Mort. ID50
Procedure: This test was performed according to the procedure described by Young et al. (Prostaglandins, 1985, 30, 545-551). Groups of 10 Swiss mice weighing from 22 to 26 g were used. 100 mcg/kg of PAF-C18 and 1 mg/kg of propanolol were administered through a lateral tail vein 1 h after the oral administration of the compounds to be tested (0.2 mL/10 g). Animals were examined 2 h after the injection of PAF. The percentage of the inhibition of the mortality induced by PAF was determined for all test compounds in comparison with the control group. The results are expressed as ID50 values, that is to say, the amount of compound by weight of animal (dose) needed to inhibit the mortality induced by PAF in a 50%.

[3] = test system: histamine-induced contraction of guinea-pig ileum (AntiH1); experiment: Antihistamine activity in guinea-pig ileum (Test 4, AntiH1 act.); type: cell-based, Dunkin-Hartley guinea pigs; conditions: for IC50: Cavia porcellus, histamine 5×10^-7 M, 5 min preincubation, read-out: Antihistaminic activity in vitro, Test 4 AntiH1 act. ileum IC50; for IC50 / antihistamine activity compared with compounds 11 and 12-14, in words / antihistamine potency in words: guinea-pig ileum
Procedure: This test was performed according to the method of Magnus. Male Dunkin-Hartley guinea pigs (b.w. 300-350 g), fasted overnight, were used. Animals were stunned, the abdomen was opened and 4 cm long ileum sections were cut. The sections were placed in a Petri dish containing Tyrode's solution at 37° C. and continuously bubbled with carbogen. The ileum fragments were washed with Tyrode's solution and then were transferred to an organ bath. Ileum contraction was measured using an isometric transducer. The initial load was 1 g. After a stabilization period of 20 min in which the organ is immersed in Tyrode's solution at 37° C. continuously bubbled with carbogen, non cumulative stimuli with submaximal doses of histamine (5×10^-7 M) were given. The contraction in absence or presence (5 min. preincubation time) of the test compounds was recorded.

SMILES	IC50 [1]	ED50 [2]	ED50 (mortality induced by PAF)	IC50 [3]	activity in the PAF-induced mortality test, in words (mortality induced by PAF; oral administration)	activity in the PAF-induced mortality test relative to all the other tested compounds (mortality induced by PAF; oral, superior to all the other tested compounds)	antihistamine activity compared with compounds 11 and 12-14, in words [3]	antihistamine potency in words [3]	antihistaminic potency relative to the 2-methyl derivative 3 ([3]; more potent than compound 3)	antihistaminic potency relative to compound 11 ([3]; more potent than compound 11)	antihistaminic potency relative to the 6-methyl and 4-methyl derivatives 2 and 5 ([3]; more potent than compounds 2 and 5)
Clc1ccc2c(c1)CCc1cccnc1C2=C1CCN(Cc2cccnc2)CC1 [Compound 1, 8-chloro-11-(1-(3-pyridylmethyl)-4-piperidyliden)-6,11-dihydro-5H-benzo[5,6]cyclohepta[1,2-b]pyridine]	4000 nM	> 5 mg/kg	30 mg/kg	160 nM	–	–	–	–	–	–	–
Cc1ncccc1CN1CCC(=C2c3ccc(Cl)cc3CCc3cccnc32)CC1 [Compound 3, 8-chloro-11-(1-[(2-methyl-3-pyridyl)methyl]-4-piperidyliden)-6,11-dihydro-5H-benzo [5,6]cyclohepta[1,2-b]pyridine]	13000 nM	> 5 mg/kg	> 30 mg/kg	270 nM	–	–	–	–	–	–	–
Clc1ccc2c(c1)CCc1cccnc1C2=C1CCN(Cc2cncc(Br)c2)CC1 [Compound 8, 8-chloro-11-(1-[(3-bromo-5-pyridyl)methyl]-4-piperidyliden)-6,11-dihydro-5H -benzo[5,6]cyclohepta[1,2-b]pyridine, trihydrochloride]	720 nM	> 5 mg/kg	< 30 mg/kg	280 nM	–	–	–	–	–	–	–
Cc1cncc(CN2CCC(=C3c4ccc(Cl)cc4CCc4cccnc43)CC2)c1 [Compound 4, 8-chloro-11-[1-[(5-methyl-3-pyridyl)methyl]-4-piperidyliden]-6,11-dihydro-5H-benzo[5,6]cyclohepta[1,2-b]pyridine]	3200 nM	0.44 mg/kg	1.9 mg/kg	4.3 nM	strong activity	≥ 10 fold	stronger activity than the 4-pyridine 11 and the compounds 12-14	potent antihistamines	~100 fold	20 fold	10 fold
CCOC(=O)N1CCC(=C2c3ccc(Cl)cc3CCc3cccnc32)CC1 [Compound 14, reference compound]	–	> 5 mg/kg	> 30 mg/kg	–	–	–	–	–	–	–	–
COc1ccc(CN2CCC(=C3c4ccc(Cl)cc4CCc4cccnc43)CC2)cn1 [Compound 9, 8-chloro-11-(1-[(6-methoxy-3-pyridyl)methyl]-4-piperidyliden)-6,11-dihydro-5H -benzo[5,6]cyclohepta[1,2-b]pyridine]	37000 nM	–	–	380 nM	–	–	–	–	–	–	–
Cc1ccc(CN2CCC(=C3c4ccc(Cl)cc4CCc4cccnc43)CC2)cn1 [Compound 2, 8-chloro-11-(1-[(6-methyl-3-pyridyl)metyl]-4-piperidyliden)-6,11-dihydro-5H-benzo [5,6]cyclohepta[1,2-]pyridine]	9000 nM	> 5 mg/kg	30 mg/kg	37 nM	–	–	stronger activity than the 4-pyridine 11 and the compounds 12-14	potent antihistamines	–	–	–
Clc1ccc2c(c1)CCc1cccnc1C2=C1CCN(Cc2ccc(Cl)nc2)CC1 [Compound 7, 8-chloro-11-(1-[(6-chloro-3-pyridyl)methyl]-4-piperidyliden)-6,11-dihydro-5H -benzo[5,6]cyclohepta[1,2-b]pyridine]	> 100000 nM	> 5 mg/kg	20 to 30 mg/kg	–	–	–	–	–	–	–	–
Clc1ccc2c(c1)CCc1cccnc1C2=C1CCN(Cc2cccnc2Cl)CC1 [Compound 6, 8-chloro-11-(1-[(2-chloro-3-pyridyl)methyl]-4-piperidyliden)-6,11-dihydro-5H -benzo[5,6]cyclohepta[1,2-b]pyridine]	> 100000 nM	> 5 mg/kg	> 30 mg/kg	350 nM	–	–	–	–	–	–	–
Cc1ccncc1CN1CCC(=C2c3ccc(Cl)cc3CCc3cccnc32)CC1 [Compound 5, 8-chloro-11-(1-[(4-methyl-3-pyridyl)methyl]-4-piperidyliden)-6,11-dihydro-5H -benzo[5.6]cyclohepta[1,2]pyridine]	15000 nM	> 5 mg/kg	10 to 30 mg/kg	35 nM	–	–	stronger activity than the 4-pyridine 11 and the compounds 12-14	potent antihistamines	–	–	–
Clc1ccc2c(c1)CCc1cccnc1C2=C1CCN(Cc2ccncc2)CC1 [Compound 11, reference compound]	1800 nM	> 5 mg/kg	30 mg/kg	94 nM	–	–	–	–	–	–	–
O=C(c1cc[n+]([O-])cc1)N1CCC(=C2c3ccc(Cl)cc3CCc3cccnc32)CC1 [Compound 13, reference compound]	220 nM	1.9 mg/kg	> 30 mg/kg	210 nM	–	–	–	–	–	–	–
CC(=O)N1CCC(=C2c3ccc(Cl)cc3CCc3cccnc32)CC1 [Compound 12, reference compound]	840 nM	2 mg/kg	31 mg/kg	100 nM	–	–	–	–	–	–	–
